According to ChEMBL document CHEMBL3882729, “Receptor-type kinase modulators and methods of use” (2009):

How the values were obtained:
[1] = molecular target: Receptor tyrosine-protein kinase erbB-2 (Homo sapiens, UniProt P04626); test: Inhibition of recombinant human N-terminal GST His6-tagged thrombin cleavage site-fused ErbB2 kinase domain (Q679 to V1255 residues) expressed in baculovirus infected insect Sf9 cells using biotinylated poly-EY as substrate after 60 mins by alphascreen assay
Ephrin type-B receptor 4 = molecular target: T1, Ephrin type-B receptor 4 (Homo sapiens, UniProt P54760); test: Inhibition of recombinant human N-terminal His6-tagged EphB4 kinase domain (E605 to E890 residues) expressed in baculovirus using poly-AEKY as substrate after 150 mins in presence of gamma33P-ATP by liquid scintillation spectrometry
T1 sequence (P54760 whole entry): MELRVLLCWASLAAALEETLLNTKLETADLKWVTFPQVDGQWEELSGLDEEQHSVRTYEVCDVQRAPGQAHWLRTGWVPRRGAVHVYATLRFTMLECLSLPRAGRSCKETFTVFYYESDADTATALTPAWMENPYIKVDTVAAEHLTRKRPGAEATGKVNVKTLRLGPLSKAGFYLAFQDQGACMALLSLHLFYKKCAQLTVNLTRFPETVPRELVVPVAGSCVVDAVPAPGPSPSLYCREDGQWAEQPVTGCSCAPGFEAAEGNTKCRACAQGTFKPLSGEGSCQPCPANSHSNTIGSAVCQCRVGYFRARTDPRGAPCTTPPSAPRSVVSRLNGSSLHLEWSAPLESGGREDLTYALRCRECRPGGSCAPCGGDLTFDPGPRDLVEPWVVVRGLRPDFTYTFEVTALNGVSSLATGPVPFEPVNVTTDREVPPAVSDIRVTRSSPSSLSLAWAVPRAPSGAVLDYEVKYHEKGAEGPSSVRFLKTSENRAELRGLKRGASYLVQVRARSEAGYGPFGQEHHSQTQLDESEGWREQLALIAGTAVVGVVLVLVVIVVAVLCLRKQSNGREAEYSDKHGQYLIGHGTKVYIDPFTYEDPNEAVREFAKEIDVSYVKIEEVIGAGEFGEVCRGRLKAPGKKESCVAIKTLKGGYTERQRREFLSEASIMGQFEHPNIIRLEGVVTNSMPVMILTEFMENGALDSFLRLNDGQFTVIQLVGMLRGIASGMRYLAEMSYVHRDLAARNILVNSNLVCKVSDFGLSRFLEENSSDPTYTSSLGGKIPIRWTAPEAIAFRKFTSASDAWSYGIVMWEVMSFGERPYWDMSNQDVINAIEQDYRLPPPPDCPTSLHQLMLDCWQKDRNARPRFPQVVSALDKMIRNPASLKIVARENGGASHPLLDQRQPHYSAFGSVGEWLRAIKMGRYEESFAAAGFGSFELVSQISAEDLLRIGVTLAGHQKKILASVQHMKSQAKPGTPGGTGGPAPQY

[2] = molecular target: Vascular endothelial growth factor receptor 2 (Homo sapiens, UniProt P35968); test: Inhibition of recombinant human N-terminal GST-fused KDR (D807 to V1356 residues) expressed in baculovirus infected […] insect Sf9 cells using poly-EY as substrate after 240 mins by luciferase coupled chemiluminescence assay
Chain of Vascular endothelial growth factor receptor 2 (P35968 whole entry, the tested form may be a part): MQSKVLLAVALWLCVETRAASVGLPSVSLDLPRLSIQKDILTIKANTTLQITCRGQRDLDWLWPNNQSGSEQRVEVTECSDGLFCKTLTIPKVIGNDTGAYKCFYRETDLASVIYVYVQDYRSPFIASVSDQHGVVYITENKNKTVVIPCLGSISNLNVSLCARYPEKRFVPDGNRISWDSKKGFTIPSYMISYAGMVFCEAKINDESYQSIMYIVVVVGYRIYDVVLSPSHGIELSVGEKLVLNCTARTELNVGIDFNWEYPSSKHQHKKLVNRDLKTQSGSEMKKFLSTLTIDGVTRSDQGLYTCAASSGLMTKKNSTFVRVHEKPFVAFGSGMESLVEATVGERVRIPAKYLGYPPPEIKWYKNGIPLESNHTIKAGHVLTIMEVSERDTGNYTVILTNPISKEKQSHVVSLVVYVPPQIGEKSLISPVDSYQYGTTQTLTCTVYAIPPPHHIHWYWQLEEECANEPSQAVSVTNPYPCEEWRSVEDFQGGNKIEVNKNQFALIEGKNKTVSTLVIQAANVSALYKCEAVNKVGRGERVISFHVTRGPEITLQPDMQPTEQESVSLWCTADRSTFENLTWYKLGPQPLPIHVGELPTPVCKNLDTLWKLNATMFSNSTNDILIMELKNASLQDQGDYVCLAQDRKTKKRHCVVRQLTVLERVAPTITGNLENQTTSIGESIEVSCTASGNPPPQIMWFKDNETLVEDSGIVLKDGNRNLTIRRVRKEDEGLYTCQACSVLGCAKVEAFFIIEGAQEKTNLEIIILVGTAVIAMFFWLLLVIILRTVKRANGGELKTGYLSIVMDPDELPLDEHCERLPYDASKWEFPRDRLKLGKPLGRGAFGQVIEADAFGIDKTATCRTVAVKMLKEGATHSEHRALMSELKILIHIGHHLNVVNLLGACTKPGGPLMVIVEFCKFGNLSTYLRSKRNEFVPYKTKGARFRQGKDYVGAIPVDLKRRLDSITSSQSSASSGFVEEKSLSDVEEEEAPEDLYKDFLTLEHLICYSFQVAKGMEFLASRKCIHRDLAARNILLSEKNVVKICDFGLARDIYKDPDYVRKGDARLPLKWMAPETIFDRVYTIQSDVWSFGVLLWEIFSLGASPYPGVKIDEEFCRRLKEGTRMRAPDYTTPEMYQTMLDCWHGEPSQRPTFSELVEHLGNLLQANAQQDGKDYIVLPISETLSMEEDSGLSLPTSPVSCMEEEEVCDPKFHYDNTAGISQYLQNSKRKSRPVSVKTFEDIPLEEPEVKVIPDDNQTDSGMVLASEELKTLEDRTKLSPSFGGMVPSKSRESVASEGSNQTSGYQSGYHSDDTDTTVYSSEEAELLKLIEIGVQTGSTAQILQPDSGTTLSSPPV

Ephrin type-A receptor 2 = Ephrin type-A receptor 2 (Homo sapiens, UniProt P29317); test: Inhibition of recombinant human N-terminal His6-tagged EphA2 (N598 to R890 residues) expressed in baculovirus using poly-EY as substrate after 180 mins by luciferase coupled chemiluminescence assay
Chain of Ephrin type-A receptor 2 (P29317 whole entry, the tested form may be a part): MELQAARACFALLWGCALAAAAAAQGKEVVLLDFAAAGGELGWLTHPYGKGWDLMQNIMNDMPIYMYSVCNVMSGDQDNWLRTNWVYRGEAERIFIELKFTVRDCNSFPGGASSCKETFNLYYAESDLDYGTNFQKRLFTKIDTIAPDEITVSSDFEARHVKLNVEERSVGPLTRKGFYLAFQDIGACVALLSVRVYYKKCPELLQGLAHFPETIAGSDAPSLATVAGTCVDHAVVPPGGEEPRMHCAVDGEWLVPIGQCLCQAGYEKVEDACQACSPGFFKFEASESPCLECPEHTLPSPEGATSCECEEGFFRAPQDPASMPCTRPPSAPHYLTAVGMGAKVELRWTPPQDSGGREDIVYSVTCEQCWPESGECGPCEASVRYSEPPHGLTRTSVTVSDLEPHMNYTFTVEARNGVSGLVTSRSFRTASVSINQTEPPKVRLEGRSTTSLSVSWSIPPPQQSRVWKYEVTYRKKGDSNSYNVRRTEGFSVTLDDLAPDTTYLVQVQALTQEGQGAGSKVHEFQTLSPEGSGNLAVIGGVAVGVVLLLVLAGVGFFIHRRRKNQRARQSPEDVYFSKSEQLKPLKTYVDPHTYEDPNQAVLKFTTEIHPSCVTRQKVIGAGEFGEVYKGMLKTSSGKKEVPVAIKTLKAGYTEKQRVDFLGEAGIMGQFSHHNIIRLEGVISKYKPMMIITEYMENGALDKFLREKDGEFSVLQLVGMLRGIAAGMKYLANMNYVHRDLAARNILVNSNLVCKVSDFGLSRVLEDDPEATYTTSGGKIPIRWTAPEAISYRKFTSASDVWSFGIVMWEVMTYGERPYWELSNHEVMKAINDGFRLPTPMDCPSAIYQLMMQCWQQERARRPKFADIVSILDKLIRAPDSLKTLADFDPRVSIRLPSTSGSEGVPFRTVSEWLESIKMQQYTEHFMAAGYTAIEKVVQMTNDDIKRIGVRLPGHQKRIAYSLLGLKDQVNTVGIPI

Chain of Receptor tyrosine-protein kinase erbB-2 (P04626 whole entry, the tested form may be a part): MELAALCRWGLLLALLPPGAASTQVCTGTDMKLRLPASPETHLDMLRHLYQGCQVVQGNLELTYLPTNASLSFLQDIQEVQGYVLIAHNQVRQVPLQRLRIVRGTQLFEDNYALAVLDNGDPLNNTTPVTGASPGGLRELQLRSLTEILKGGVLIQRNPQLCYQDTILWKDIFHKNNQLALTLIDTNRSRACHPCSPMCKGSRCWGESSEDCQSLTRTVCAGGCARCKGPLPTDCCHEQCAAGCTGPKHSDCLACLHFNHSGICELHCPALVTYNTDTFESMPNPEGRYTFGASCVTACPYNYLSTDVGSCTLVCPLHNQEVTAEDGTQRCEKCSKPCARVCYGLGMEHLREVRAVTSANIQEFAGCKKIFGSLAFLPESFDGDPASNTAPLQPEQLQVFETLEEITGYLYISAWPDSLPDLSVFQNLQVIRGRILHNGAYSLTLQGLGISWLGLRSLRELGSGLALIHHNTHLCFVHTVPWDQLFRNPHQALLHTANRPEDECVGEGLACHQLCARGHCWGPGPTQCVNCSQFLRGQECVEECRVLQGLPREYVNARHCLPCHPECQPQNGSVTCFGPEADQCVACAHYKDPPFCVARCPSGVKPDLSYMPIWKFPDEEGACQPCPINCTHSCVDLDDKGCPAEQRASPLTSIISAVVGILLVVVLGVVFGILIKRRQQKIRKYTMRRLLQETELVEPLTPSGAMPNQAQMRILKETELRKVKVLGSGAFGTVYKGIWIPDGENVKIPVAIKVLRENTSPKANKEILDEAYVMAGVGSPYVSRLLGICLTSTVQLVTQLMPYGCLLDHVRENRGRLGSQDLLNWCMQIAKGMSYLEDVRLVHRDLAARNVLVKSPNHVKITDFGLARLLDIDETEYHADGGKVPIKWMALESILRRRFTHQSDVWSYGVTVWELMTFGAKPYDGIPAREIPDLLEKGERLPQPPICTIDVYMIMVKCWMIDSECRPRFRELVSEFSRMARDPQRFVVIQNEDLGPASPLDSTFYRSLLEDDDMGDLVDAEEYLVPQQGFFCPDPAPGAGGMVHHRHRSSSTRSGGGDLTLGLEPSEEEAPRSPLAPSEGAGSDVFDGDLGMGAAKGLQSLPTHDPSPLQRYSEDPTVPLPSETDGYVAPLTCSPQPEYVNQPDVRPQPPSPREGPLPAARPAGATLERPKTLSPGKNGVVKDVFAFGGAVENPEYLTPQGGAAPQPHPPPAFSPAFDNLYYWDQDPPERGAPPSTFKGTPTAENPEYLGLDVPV

| Compound | IC50 [1] | IC50 (Ephrin type-B receptor 4) | IC50 [2] | IC50 (Ephrin type-A receptor 2) |
| --- | --- | --- | --- | --- |
| CCOc1cc2c(Nc3ccc(Cl)c(Cl)c3)ncnc2cc1OCC1CNCCO1 (stereo not drawn) | < 0.05 µM | < 0.05 µM | < 0.05 µM |  |
| COc1cc2c(Nc3ccc(Cl)c(Cl)c3)ncnc2cc1OCC1CN(C(=O)c2cccc3ccccc23)CCO1 (stereo not drawn) |  | 0.05 to 1 µM | 0.05 to 1 µM | 1 to 20 µM |
| COc1cc2c(Nc3ccc(Cl)c(Cl)c3)ncnc2cc1OCC1CN(C(C)C(C)=O)CCO1 (stereo not drawn) |  | 0.05 to 1 µM | 0.05 to 1 µM | 0.05 to 1 µM |
| CCN1CCN(CC)C(COc2cc3ncnc(Nc4ccc(Cl)c(Cl)c4)c3cc2OC)C1 (stereo not drawn) |  | 0.05 to 1 µM | 1 to 20 µM | 0.05 to 1 µM |
| COc1cc2c(Nc3ccc(Cl)c(Cl)c3)ncnc2cc1OCC1CN(C2CCC2)CCO1 (stereo not drawn) |  | 0.05 to 1 µM | < 0.05 µM | 0.05 to 1 µM |
| CCC(=O)CN1CCOC(COc2cc3ncnc(Nc4ccc(Cl)c(Cl)c4)c3cc2OC)C1 (stereo not drawn) |  | 0.05 to 1 µM | 0.05 to 1 µM | 0.05 to 1 µM |
| COc1cc2c(Nc3ccc(Cl)c(Cl)c3)ncnc2cc1OCC1CN(C(C)=O)CCO1 (stereo not drawn) |  | < 0.05 µM | 0.05 to 1 µM | 0.05 to 1 µM |
| COc1cc2c(Nc3ccc(Cl)c(Cl)c3)ncnc2cc1OCC1OCCN(CC(=O)c2ccccc2)C1=O (stereo not drawn) |  | 0.05 to 1 µM | 0.05 to 1 µM | 0.05 to 1 µM |
| COc1cc2c(Nc3ccc(Cl)c(Cl)c3)ncnc2cc1OCC1CN(C(=O)Cc2ccc(Cl)cc2)CCO1 (stereo not drawn) |  | 0.05 to 1 µM | 0.05 to 1 µM | 1 to 20 µM |
| COc1cc2c(Nc3ccc(Cl)c(Cl)c3)ncnc2cc1OCC1CN(C2CCN(C)CC2)CCO1 (stereo not drawn) |  | < 0.05 µM | < 0.05 µM | 0.05 to 1 µM |
| COc1cc2c(Nc3ccc(Cl)c(Br)c3)ncnc2cc1OCC1CN(C)CCO1 (stereo not drawn) |  | < 0.05 µM | 0.05 to 1 µM | 0.05 to 1 µM |
| COCCNC(=NC#N)N1CCOC(COc2cc3ncnc(Nc4ccc(Cl)c(Cl)c4)c3cc2OC)C1 (stereo not drawn) |  | < 0.05 µM | 0.05 to 1 µM | 0.05 to 1 µM |
| COc1cc2c(Nc3ccc(Cl)c(Cl)c3)ncnc2cc1OCC1CN(CC2CCCCC2)CCO1 (stereo not drawn) |  | 0.05 to 1 µM | 0.05 to 1 µM | 0.05 to 1 µM |
| COc1cc2c(Nc3ccc(Cl)c(Cl)c3)ncnc2cc1OCC1CN(CC=C(C)C)CCO1 (stereo not drawn) |  | 0.05 to 1 µM | 0.05 to 1 µM | 0.05 to 1 µM |
| COc1cc2c(Nc3ccc(Cl)c(Cl)c3)ncnc2cc1OCC1CN(CCCOC2CCCCO2)CCCO1 (stereo not drawn) |  | < 0.05 µM | < 0.05 µM | 0.05 to 1 µM |
| COc1cc2c(Nc3ccc(Cl)c(Cl)c3)ncnc2cc1OCC1CN(C(=O)CC(=O)O)CCO1 (stereo not drawn) |  | < 0.05 µM | < 0.05 µM | < 0.05 µM |
| COc1cc2c(Nc3ccc(Cl)c(Cl)c3)ncnc2cc1OCC1CN(C/C=C/Br)CCO1 (stereo not drawn) |  | 0.05 to 1 µM | 0.05 to 1 µM | 0.05 to 1 µM |
| COc1cc2c(Nc3ccc(Cl)c(Cl)c3)ncnc2cc1OCC1CN(Cc2ccccn2)CCO1 (stereo not drawn) |  | 0.05 to 1 µM | < 0.05 µM | 0.05 to 1 µM |
| COC(=O)CCCCN1CCOC(COc2cc3ncnc(Nc4ccc(Cl)c(Cl)c4)c3cc2OC)C1 (stereo not drawn) |  | 0.05 to 1 µM | 0.05 to 1 µM | 0.05 to 1 µM |
| COc1cc2c(Nc3ccc(Cl)c(Cl)c3)ncnc2cc1OCC1CN(C)CC(C)(C)O1 (stereo not drawn) | 0.05 to 1 µM | 0.05 to 1 µM | 0.05 to 1 µM |  |
| CN1CCOC(COc2cc3ncnc(Nc4ccc(Cl)c(Cl)c4)c3cc2O)C1 (stereo not drawn) |  | 0.05 to 1 µM | 0.05 to 1 µM | 0.05 to 1 µM |
| COc1cc2c(Nc3ccc(Cl)c(Cl)c3)ncnc2cc1OCC1CN(C(=O)c2cc(F)ccc2F)CCO1 (stereo not drawn) |  | 0.05 to 1 µM | 0.05 to 1 µM | 0.05 to 1 µM |
| COc1cc2c(Nc3ccc(Cl)c(Cl)c3)ncnc2cc1OCc1cc(F)cc2c1OCOC2 |  | 1 to 20 µM | 1 to 20 µM | 1 to 20 µM |
| COc1cc2c(Nc3ccc(Cl)c(Cl)c3)ncnc2cc1OCC1CN(CCC2CCCCC2)CCCO1 (stereo not drawn) |  | 0.05 to 1 µM | 0.05 to 1 µM | 0.05 to 1 µM |
| COc1cc2c(Nc3ccc(Cl)c(Cl)c3)ncnc2cc1OCC1CN(c2ccncc2)CCO1 (stereo not drawn) |  | < 0.05 µM | < 0.05 µM | < 0.05 µM |
| COc1cc2c(Nc3ccc(Cl)c(Cl)c3)ncnc2cc1OCC1CN(S(=O)(=O)c2ccc(F)cc2)CCO1 (stereo not drawn) |  | 0.05 to 1 µM | 0.05 to 1 µM | 1 to 20 µM |

| Compound | IC50 [1] | IC50 (Ephrin type-B receptor 4) | IC50 [2] | IC50 (Ephrin type-A receptor 2) |
| --- | --- | --- | --- | --- |
| CCCN1CCOC(COc2cc3ncnc(Nc4ccc(Cl)c(Cl)c4)c3cc2OC)C1 (stereo not drawn) |  | < 0.05 µM | 0.05 to 1 µM | 0.05 to 1 µM |
| CCC(CC)CN1CCCOC(COc2cc3ncnc(Nc4ccc(Cl)c(Cl)c4)c3cc2OC)C1 (stereo not drawn) |  | 0.05 to 1 µM | 0.05 to 1 µM | 0.05 to 1 µM |
| COc1cc2c(Nc3ccc(Cl)c(Cl)c3)ncnc2cc1OCC1CNCC(C)(C)O1 (stereo not drawn) | 0.05 to 1 µM | 0.05 to 1 µM | < 0.05 µM |  |
| COc1cc2c(Nc3ccc(Cl)c(Cl)c3)ncnc2cc1OCC1CN(CCO)CCO1 (stereo not drawn) |  | 0.05 to 1 µM | 0.05 to 1 µM | 0.05 to 1 µM |
| COc1cc2c(Nc3ccc(Cl)c(Cl)c3)ncnc2cc1OCC1CN(C(=O)C(C)(C)C)CCO1 (stereo not drawn) |  | 0.05 to 1 µM | 0.05 to 1 µM | 0.05 to 1 µM |
| CCCCc1ccc(C(=O)N2CCOC(COc3cc4ncnc(Nc5ccc(Cl)c(Cl)c5)c4cc3OC)C2)cc1 (stereo not drawn) |  | 1 to 20 µM | 1 to 20 µM | 1 to 20 µM |
| COc1cc2c(Nc3ccc(Cl)c(Cl)c3)ncnc2cc1OCC1CN(CCCCCCO)CCO1 (stereo not drawn) |  | < 0.05 µM | < 0.05 µM | 0.05 to 1 µM |
| COc1cc2c(Nc3ccc(Br)cc3Br)ncnc2cc1OCC1CN(C)CCO1 (stereo not drawn) |  | 0.05 to 1 µM | 0.05 to 1 µM | 0.05 to 1 µM |
| COc1cc2c(Nc3ccc(Br)cc3F)ncnc2cc1OCC1CN(C)CCO1 (stereo not drawn) |  | 0.05 to 1 µM | < 0.05 µM | 0.05 to 1 µM |
| COc1cc2c(Nc3ccc(Cl)c(Cl)c3)ncnc2cc1OCC1CN(S(=O)(=O)Cc2ccccc2)CCO1 (stereo not drawn) |  | 0.05 to 1 µM | 0.05 to 1 µM | 0.05 to 1 µM |
| COc1cc2c(Nc3cccc(Br)c3C)ncnc2cc1OCC1CN(C)CCO1 (stereo not drawn) |  | 0.05 to 1 µM | 0.05 to 1 µM | 0.05 to 1 µM |
| COc1cc2c(Nc3ccc(Cl)c(Cl)c3)ncnc2cc1OCC1CN(CCCC#N)CCO1 (stereo not drawn) |  | < 0.05 µM | < 0.05 µM | < 0.05 µM |
| COc1cc2c(Nc3ccc(Cl)c(C)c3)ncnc2cc1OCC1CN(C)CCO1 (stereo not drawn) |  | 0.05 to 1 µM | 0.05 to 1 µM | 0.05 to 1 µM |
| COc1cc2c(Nc3ccc(Cl)c(Cl)c3)ncnc2cc1OCC1CN(C2CCOCC2)CCO1 (stereo not drawn) |  | < 0.05 µM | 0.05 to 1 µM | 0.05 to 1 µM |
| COc1cc2c(Nc3ccc(Cl)c(Cl)c3)ncnc2cc1OCC1CN(C(=O)c2ccc3c(c2)OCO3)CCO1 (stereo not drawn) |  | 0.05 to 1 µM | 0.05 to 1 µM | 0.05 to 1 µM |
| CCN1CCN(C)CC1COc1cc2ncnc(Nc3ccc(Cl)c(Cl)c3)c2cc1OC (stereo not drawn) |  | 0.05 to 1 µM | 1 to 20 µM | 0.05 to 1 µM |
| COc1cc2c(Nc3ccc(Cl)c(Cl)c3)ncnc2cc1OCC1CN(S(=O)(=O)c2ccc(C)cc2)CCO1 (stereo not drawn) |  | 1 to 20 µM | 0.05 to 1 µM | 1 to 20 µM |
| COc1cc2c(Nc3ccc(Cl)c(Cl)c3)ncnc2cc1OCC1CN(C(=O)c2ccc(Cl)nc2)CCO1 (stereo not drawn) |  | < 0.05 µM | 0.05 to 1 µM | 0.05 to 1 µM |
| COc1cc2c(Nc3ccc(Cl)c(Cl)c3)ncnc2cc1OCC1CN(CCc2ccccc2)CCO1 (stereo not drawn) |  | 0.05 to 1 µM | 0.05 to 1 µM | 1 to 20 µM |
| COc1cc2c(Nc3cc(Cl)ccc3F)ncnc2cc1OCC1CN(C)CCO1 (stereo not drawn) |  | 0.05 to 1 µM | 0.05 to 1 µM | 0.05 to 1 µM |
| CCCCCCCCN1CCOC(COc2cc3ncnc(Nc4ccc(Cl)c(Cl)c4)c3cc2OC)C1 (stereo not drawn) |  | 0.05 to 1 µM | 1 to 20 µM | 1 to 20 µM |
| CCN1CCN(C(C)=O)CC1COc1cc2ncnc(Nc3ccc(Cl)c(Cl)c3)c2cc1OC (stereo not drawn) |  | < 0.05 µM | 1 to 20 µM | 0.05 to 1 µM |
| C=CCN1CCOC(COc2cc3ncnc(Nc4ccc(Cl)c(Cl)c4)c3cc2OC)C1 (stereo not drawn) |  | 0.05 to 1 µM | 0.05 to 1 µM | 0.05 to 1 µM |
| COc1cc2c(Nc3ccc(Cl)c(Cl)c3)ncnc2cc1OCC1CN(CCC2OCCO2)CCO1 (stereo not drawn) |  | < 0.05 µM | 0.05 to 1 µM | 0.05 to 1 µM |
| C#CCN1CCOC(COc2cc3ncnc(Nc4ccc(Cl)c(Cl)c4)c3cc2OC)C1 (stereo not drawn) |  | < 0.05 µM | < 0.05 µM | < 0.05 µM |
